Consider 1 molecule from PubChem BioAssay AID504330 (The Scripps Research Institute Molecular Screening Center, 2011).

The assay concerns the target Caspase-7 (Homo sapiens) (UniProt P55210). In words: procaspase-7 activators, dose response, dual procaspase-3/-7 activator project, biochemical, absorbance, human (AID 504330). The settings on record: recombinant procaspase-7 D3A, Ac-DEVD-pNA absorbance 405 nm.

Molecules are shown by their SMILES. The source made the active and inactive calls.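 The calls were made as follows: active = EC50 at or below 10 µM; inactive = the rest.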

Sequence of Caspase-7 (Homo sapiens) (P55210 whole entry D23A/D198A/D206A): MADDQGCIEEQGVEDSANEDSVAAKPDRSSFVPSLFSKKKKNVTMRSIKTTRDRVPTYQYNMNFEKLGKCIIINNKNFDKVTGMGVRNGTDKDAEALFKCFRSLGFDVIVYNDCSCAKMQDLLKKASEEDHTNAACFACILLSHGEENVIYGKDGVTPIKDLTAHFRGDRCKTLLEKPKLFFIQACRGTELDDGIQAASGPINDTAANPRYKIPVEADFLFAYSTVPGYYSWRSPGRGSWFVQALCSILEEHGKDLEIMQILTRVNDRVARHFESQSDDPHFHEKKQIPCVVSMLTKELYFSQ

As for `CCOc1ccc(N=CC2=C(O)CC(c3ccco3)CC2=O)cc1` (stereo unspecified), the EC50 (in general, the concentration that produces a half-maximal response) was > 85.3 µM (inactive).
